Data published in US5705102A, “Photochromic spironaphthopyran compounds” (Vision-Ease Lens, Inc., priority 1995, dated 1998).

Experiments:
[1] = Determination of maximum absorption wavelength (λmax) after UV irradiation in solution; assay type: physicochemical; parameters: key: *: Fades too fast to obtain readings; conditions: cyclohexane
[2] = Determination of fade time T1/2 after isolation from the activating UV light; assay type: physicochemical; parameters: key: *: Fades too fast to obtain readings; conditions: chloroform, room temperature (72° F.)
Protocol: (§1) Each of the photochromic compounds (compound P) formed in step 2 of Examples 1-13 and Comparative Example 1 were independently dissolved in separate containers of chloroform. Additionally, a purchased sample of 3,3-diphenyl-naphtho-3H[2,1-b]pyran, identified as Comparative Example 2, was dissolved in a separate container of chloroform.
(§2) Each of the chloroform-dissolved photochromic compounds of Examples 1-13 and Comparative Examples 1-2 were then irradiated with ultraviolet light with a maximum wavelength of 350 nanometers and were measured for maximum absorption wavelength) λmax. The fade time, T1/2 was then determined for each of the irradiated compounds. The fade time for a particular chloroform dissolved photochromic compound is defined as the time interval, at room temperature (72° F.), for the absorbance of the activated form of the chloroform-dissolved photochromic compound to decrease to 1/2 of the maximum absorbance, after the photochromic compound is isolated from the activating source of ultraviolet light. The maximum absorption wavelength and fade time determined for each of the irradiated photochromic compounds of Examples 1-13 and Comparative Examples 1-2 are presented in Table 1: […]

[3] = Determination of maximum absorption wavelength (λmax) after UV irradiation in solution; assay type: physicochemical; conditions: for λmax: chloroform, irradiated with ultraviolet light with a maximum wavelength of 350 nanometers
Protocol: as §1, §2

[4] = U.S. Pat. No. 3,567,605 to Becker; cited from earlier work
[5] = Color of the compound or blend when activated by ultraviolet light; assay type: physicochemical
[6] = absorbance of activated form to decrease to 1/2 of maximum

SMILES	λmax [1] [Nanometers]	T1/2 (fade time) [2, 6] [s]	λmax [3] [Nanometers]	further results
COc1ccc2c3c(ccc2c1)OC(c1ccccc1)(c1ccccc1)C=C3 [Comparative Example 1, 3,3-diphenyl-8-methoxy-3H-naphtho[2,1-b]pyran, reference compound]	451	10	472	–
COc1ccc2c3c(ccc2c1)OC1(C=C3)CCCc2cc(OC)c(OC)cc21 (stereo not drawn) [Example 3, 6',7'-dimethoxy-8-methoxyspiro(3H-naphtho[2,1-b]pyran-3,1'-tetralone)]	–	–	445	λmax ([1]; symbol, no reading): *; T1/2 (fade time) ([2]; symbol, no reading): *
C1=CC(c2ccccc2)(c2ccccc2)Oc2ccc3ccccc3c21 [Comparative Example 2, 3,3-diphenyl-naphtho-3H[2,1-b]pyran, reference compound]	415	13	435	photochromism [4]: photochromic at room temperature
C1=CC2(Oc3ccc4ccccc4c31)c1ccccc1-c1ccccc12 [Example 9, spiro(3H-naphtho[2,1-b]pyran-3,9'-fluorene)]	438	10	445	maximum wavelengths of activation, compared with Comparative Example 2 ([3]; vs 3,3-diphenyl-naphtho-3H[2,1-b]pyran): longer maximum wavelengths of activation
COc1ccc2c3c(ccc2c1)OC1(C=C3)c2ccccc2CC(c2ccccc2)C1c1ccccc1 (stereo not drawn) [Example 5]	–	13	476	–
CC1CCc2ccccc2C12C=Cc1c(ccc3ccccc13)O2 (stereo not drawn) [Example 11, 2'-methylspiro(3H-naphtho[2,1-b]pyran-3,1'-tetralone)]	–	–	444	T1/2 (fade time) ([2]; symbol, no reading): *
COc1ccc2c3c(ccc2c1)OC1(C=C3)c2ccccc2-c2ccccc21 [Example 1, 8-methoxyspiro(3H-naphtho [2,1-b]pyran-3,9'-fluorene)]	478	20	492	color when activated by ultraviolet light [5]: deep shade of orange; color of blend with blue-turning photochromic compounds when activated by ultraviolet radiation ([5]; blended with blue-turning photochromic compounds, such as substituted spiroindolino naphthoxazine): desirable, intense shade of gray; activated maximum wavelength of absorption ([3]; dissolved in chloroform, irradiated with ultraviolet light): about 492 nanometers; maximum wavelength of activation, compared with Comparative Example 1 ([3]; vs 3,3-diphenyl-8-methoxy-3H-naphtho[2,1-b]pyran): longer maximum wavelength of activation
COc1ccc2c3c(ccc2c1)OC1(C=C3)CCCc2ccccc21 (stereo not drawn) [Example 2, 8-methoxyspiro(3H-naphtho[2,1-b]pyran-3,1'-tetralone)]	465	15	474	–
COc1ccc2c3c(ccc2c1)OC1(C=C3)C(c2ccccc2)=C(c2ccccc2)c2ccccc21 (stereo not drawn) [Example 8, 2',3'-diphenyl-8-methoxyspiro(3H-naphtho[2,1-b]pyran-3,1'-indene)]	–	64	512	–
COc1ccc2c3c(ccc2c1)OC1(C=C3)c2ccccc2CCC1C (stereo not drawn) [Example 6, 2'-methyl-8-methoxyspiro(3H-naphtho[2,1-b]pyran-3,1'-tetralone)]	–	1.2	468	–
C1=CC2(Oc3ccc4ccccc4c31)C(c1ccccc1)=C(c1ccccc1)c1ccccc12 (stereo not drawn) [Example 13]	–	35	454	–
COc1ccc2c3c(ccc2c1)OC1(C=C3)c2ccccc2CC1C (stereo not drawn) [Example 7, 2'-methyl-8-methoxyspiro(3H-naphtho[2,1-b]pyran-3,1'-indan)]	–	396	478	–
